For the experiment, the system named is Caco-2 cell monolayers. As to the kind of experiment: Indomethacin-induced damage (loss of TEER) in Caco-2 cell monolayers, assay development. Type of experiment: cell-based, human. How it is done:
Considering the fact that the Caco-2 cell model mimics the human intestinal mucosa, and that the intraluminal pH of the small intestine ranges from approximately 6.0 to 7.4, evaluation of the damage induced by indomethacin (the chosen ulcerogenic agent, the use of which was previously reported) was performed at these two pH conditions. The choice of 0.75 mM indomethacin was based on earlier observations reported for a similar evaluation using Caco-2 cells for this initial assay development stage. For each pH condition, the damage was measured by comparing the TEER values of indomethacin-treated cell monolayers with those of control cell monolayers before and after the assay, and the % of TEER remaining (compared to the control treatment) was calculated. The results are illustrated below in FIG. 7. […] In contrast, for the assay with the pH condition of 6.0, approximately 50% of the TEER was lost by two hours and nearly 80% of the TEER was lost by the end of the assay duration of 5 hours. […] Therefore, pH 6.0 was selected as the optimal pH condition on the apical (modeling the luminal) side for this assay. It was also noted that the majority of the damage was caused between 2 and 3 hours of duration; any additional damage after three hours was marginal. For this reason, further evaluations were performed at a truncated duration of 2 to 3 hours. Considering the fact that significant damage to the cells was induced post two hours in the assessment above and the fact that a shorter assay duration would be desirable for the purposes of experimental logistics, different concentrations (1, 1.5 and 2 mM) of indomethacin were tested to understand the extent of damage caused to the cell monolayers as a function of indomethacin concentration using apical pH of 6.0 and a 3 hour duration. […] Therefore, a concentration of 2 mM was selected as the optimal concentration for this assay.

In the case of `COc1ccc2c(c1)c(CC(=O)O)c(C)n2C(=O)c1ccc(Cl)cc1` [indomethacin], under “2 mM (1, 1.5 and 2 mM tested), apical pH 6.0, 3 hour duration”, the “damage to the cell monolayers as a function of indomethacin concentration” value was “Maximum damage”. Moreover, the TEER lost is, setting by setting: (indomethacin 0.75 mM, apical pH 6.0, 5 hours) around 80%; (indomethacin 0.75 mM, apical pH 6.0, two hours) “approximately 50%”. In addition, the “loss of TEER” value (indomethacin 0.75 mM, pH 7.4, 5 hours) was “a significant loss of TEER was not observed”.
